Experiment [1] deals with NanoLuc-EV71 reporter virus / EV71 virus. In words: NanoLuc-EV71 reporter virus luciferase and viral RNA time course. In kind it is cell-based, enterovirus 71 (EV71). Particulars: 1.5 μM peptide pre-incubated with virus 1 hr, RD cells, luciferase at time points. The procedure: Fig 2 LL-18 and FF-18 inhibit EV71 infection at the early stages of infection. (A-B) NanoLuc-EV71 reporter virus (A) or EV71 virus (MOI = 1, B) was pre-incubated with 1.5 μM LL-18 or FF-18 for 1 hr before they were used to infect RD cells. Luciferase (A) or viral RNA (B) was determined at indicated time points. Viral RNAs were normalized to mock treated cells at 1 h.p.i. ***, P<0.001. (C-E) EV71 virus (MOI = 1) was either pre-incubated with 1.5 μM LL-18 before infection (-2 and -1 time points), added simultaneously with LL-18 (0 time point) or LL-18 was added at indicated time points post-infection (1, 2, 4, 7 time points) and viral VP1 expression (C), cell viability (D), or viral titer (E) was determined 24 h.p.i. ns, not significant; **, P<0.01; ***, P<0.001. (F-H) EV71 virus (MOI = 1) was either pre-incubated with 1.5 μM FF-18 before infection (-2 and -1 time points), added simultaneously with FF-18 (0 time point) or FF-18 was added at indicated time points post-infection (1, 2, 4, 7 time points) and viral VP1 expression (F), cell viability (G), or viral titer (H) was determined 24 h.p.i. ns, not significant; **, P<0.01; ***, P<0.001.
Full-length NanoLuc-EV71 reporter viruses and subgenomic EV71 replicon (SGR) were described previously. […] Nano luciferase and Renilla luciferase were measured with Nano-Glo or Renilla luciferase assay system from Promega (Madison, WI). […]

The subject of another experiment is coxsackievirus B5 (CVB5). Briefly: CVB5 infection inhibition on RD cells (cell viability). In kind it is cell-based. The conditions noted are these: for inhibition of CVB5 infection: 0.3, 0.9, or 1.5 μM peptide pre-incubated with virus, RD cell viability 24 h.p.i (S1F Fig); for inhibition of CVB5 infection, higher concentrations: 3, 6, or 12 μM peptide pre-incubated with virus, RD cell viability 24 h.p.i (S1H Fig). How it is done: (§1) Synthetic peptides were purchased from Bioyears Co. Ltd. (Wuhan, China) with purity of more than 95% and dissolved in PBS. To test their inhibitory effects, the EV71 virus (MOI = 1) was incubated with the indicated amount of peptide at room temperature for 1 hr before the mixture was added to RD cells and maintained throughout the experiment. Cell viability, viral titer, or viral protein expression was determined 24 h.p.i. For the time-of-addition experiment, viruses were either pre-incubated with peptides (for the -2 and -1 time points), the mixture was added to the cells simultaneously (for 0 time point), or peptides were added after virus infection (for 1, 2, 4 and 7 h time points) and the virus/peptide was maintained in the culture before cell viability, viral titer, or viral protein expression was determined 24 h.p.i. The TCID50 of the virus was calculated according to the Reed-Muench method.
(§2) Cell viability assays were carried out using the Cell Titer-Glo Luminescent Cell Viability Assay Kit (Promega, Madison, WI) following the manufacturer’s instructions. Luminescence signals were measured using a BioTek Neo2 microplate reader.
(A-D) Cell viability of RD cells treated with the indicated amount of DL-37 (A), LL-37 (B), LL-18 (C), or FF-18 (D) was plotted against peptide concentration, and the cytotoxicity was determined. (E) EV71 virus pre-incubated with indicated amounts of DL-37, and the cell viability was determined 24 h.p.i. ***, P<0.001. (F-G) CVB5 (F) or Echo7 (G) virus pre-incubated with 0.3, 0.9, or 1.5 μM of peptides were used to infect RD cells. Cell viability was determined 24 h.p.i. ***, P<0.001. (H-I) CVB5 (H) or Echo7 (I) virus pre-incubated with 3, 6, or 12 μM of peptides were used to infect RD cells. Cell viability was determined 24 h.p.i. ***, P<0.001. (TIF) Click here for additional data file.

Another experiment relates to EV71 virus. In words: EV71 infection inhibition on RD cells (VP1 immunoblot, viral titer, cell viability/CPE). Particulars: for inhibition of EV71 viral VP1 protein expression: EV71 MOI = 1 pre-incubated with peptide 1 hr at room temperature, RD cells, immunoblotting, 24 h.p.i. In kind it is cell-based, enterovirus 71 (EV71). How it is done:
as §1
Cells were treated as described and harvested with LDS sample buffer (Thermo Fisher Scientific). After denaturation, samples were separated on 10% SDS-PAGE gel and then transferred to a polyvinylidene fluoride (PVDF) membrane. The proteins were blocked using 5% skimmed milk and probed with the corresponding antibodies. The following antibodies were used in this study: EV71 VP1 polyclonal antibody (GeneTex, Taiwan, China), β-Actin antibody (Zen BioScience, Chengdu, China), pan-Enterovirus Monoclonal antibody (Thermo Fisher Scientific). The chemiluminescence signals were visualized using ECL Advance reagents (Mishubio, China), and the images were acquired using the FUSION Solo S Imaging System (VILBER, France).
as §2
For crystal violet staining, cells treated as indicated were first washed once with PBS, followed by fixation with 4% PFA. Cells were then stained with 0.5% crystal violet for 2 hrs before they were extensively washed with water.
A general note: In western blotting, separated proteins are transferred to a membrane and probed.

Where no end group is shown, it is not given here.

For the sequence FRKSKEKIGKFFKRIVQRIFDFLRNLV [FF-18], the “inhibition of NanoLuc expression of NanoLuc-EV71 reporter virus” value in experiment [1] is “could inhibit the expression of NanoLuc as early as 4 hrs post-infection”. Besides, in the experiment on coxsackievirus B5 (CVB5), the “inhibition of CVB5 infection” value is listed as “neither LL-18 nor FF-18 could inhibit CVB5 or Echo 7 infection” and the “inhibition of CVB5 infection, higher concentrations” value is recorded as “could still not inhibit CVB5 or Echo 7 infection”. Further, in the experiment with EV71 virus, the “inhibition of EV71 infection (overall conclusion)” value is reported as “could effectively inhibit EV71 infection”, the “reduction of EV71 viral titer in supernatant” value is given as “reduce the viral titers dose-dependently” and the “inhibition of EV71 viral VP1 protein expression” value is “inhibit EV71 viral protein expression in a dose-dependent manner”.
For FRKSKEKIGKLFKRIVQRILDFLRNLV [LL-18], the “inhibition of NanoLuc expression of NanoLuc-EV71 reporter virus” value in experiment [1] was “could inhibit the expression of NanoLuc as early as 4 hrs post-infection”. In the experiment with coxsackievirus B5 (CVB5), the “inhibition of CVB5 infection” value was “neither LL-18 nor FF-18 could inhibit CVB5 or Echo 7 infection” and the “inhibition of CVB5 infection, higher concentrations” value is “could still not inhibit CVB5 or Echo 7 infection”. In the experiment on EV71 virus, the “inhibition of EV71 infection (overall conclusion)” value was “could effectively inhibit EV71 infection”, the “reduction of EV71 viral titer in supernatant” value is recorded as “reduce the viral titers dose-dependently” and the “inhibition of EV71 viral VP1 protein expression” value was “inhibit EV71 viral protein expression in a dose-dependent manner”.

The values above are taken from article PMC10846744, “Cathelicidin peptide analogues inhibit EV71 infection through blocking viral entry and uncoating” (PLOS Pathogens, 2024).
